Assay results taken from US20230131025A1, “QUINOLYL PHOSPHINE OXIDE COMPOUND, AND COMPOSITION AND APPLICATION THEREOF” (Betta Pharmaceuticals Co., Ltd., priority 2020, published 2023).

Legend:
Ba/F3-Δ19del/T790M/C797S = Ba/F3-Δ19del/T790M/C797S (Homo sapiens, UniProt P00533, T790M/C797S, cells depend on it, form not given); experiment: Cell proliferation experiment (CellTiter Glo, 72 hours); assay type: cell-based; settings: read-out: Ba/F3/EGFR Δ19del/T790M/C797S IC50
In short: (§1)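 Ba/F3 cells overexpressing EGFR Δ19del/T790M/C797S or EGFR WT were seeded at 2000 or 3000 cells/well and exposed 72 h to 9 compound concentrations (3-fold, top 10000 or 1111 nM final, 0.1% DMSO). CellTiter-Glo luminescence gave survival inhibition versus controls; IC50 from nonlinear fit.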

Ba/F3 EGFR WT = Ba/F3 EGFR WT (Homo sapiens, UniProt P00533); experiment: as above; assay type: cell-based; settings: read-out: BaF3 EGFR WT IC50
Ba/F3 EGFR WT, sequence (P00533 whole entry, change not shown): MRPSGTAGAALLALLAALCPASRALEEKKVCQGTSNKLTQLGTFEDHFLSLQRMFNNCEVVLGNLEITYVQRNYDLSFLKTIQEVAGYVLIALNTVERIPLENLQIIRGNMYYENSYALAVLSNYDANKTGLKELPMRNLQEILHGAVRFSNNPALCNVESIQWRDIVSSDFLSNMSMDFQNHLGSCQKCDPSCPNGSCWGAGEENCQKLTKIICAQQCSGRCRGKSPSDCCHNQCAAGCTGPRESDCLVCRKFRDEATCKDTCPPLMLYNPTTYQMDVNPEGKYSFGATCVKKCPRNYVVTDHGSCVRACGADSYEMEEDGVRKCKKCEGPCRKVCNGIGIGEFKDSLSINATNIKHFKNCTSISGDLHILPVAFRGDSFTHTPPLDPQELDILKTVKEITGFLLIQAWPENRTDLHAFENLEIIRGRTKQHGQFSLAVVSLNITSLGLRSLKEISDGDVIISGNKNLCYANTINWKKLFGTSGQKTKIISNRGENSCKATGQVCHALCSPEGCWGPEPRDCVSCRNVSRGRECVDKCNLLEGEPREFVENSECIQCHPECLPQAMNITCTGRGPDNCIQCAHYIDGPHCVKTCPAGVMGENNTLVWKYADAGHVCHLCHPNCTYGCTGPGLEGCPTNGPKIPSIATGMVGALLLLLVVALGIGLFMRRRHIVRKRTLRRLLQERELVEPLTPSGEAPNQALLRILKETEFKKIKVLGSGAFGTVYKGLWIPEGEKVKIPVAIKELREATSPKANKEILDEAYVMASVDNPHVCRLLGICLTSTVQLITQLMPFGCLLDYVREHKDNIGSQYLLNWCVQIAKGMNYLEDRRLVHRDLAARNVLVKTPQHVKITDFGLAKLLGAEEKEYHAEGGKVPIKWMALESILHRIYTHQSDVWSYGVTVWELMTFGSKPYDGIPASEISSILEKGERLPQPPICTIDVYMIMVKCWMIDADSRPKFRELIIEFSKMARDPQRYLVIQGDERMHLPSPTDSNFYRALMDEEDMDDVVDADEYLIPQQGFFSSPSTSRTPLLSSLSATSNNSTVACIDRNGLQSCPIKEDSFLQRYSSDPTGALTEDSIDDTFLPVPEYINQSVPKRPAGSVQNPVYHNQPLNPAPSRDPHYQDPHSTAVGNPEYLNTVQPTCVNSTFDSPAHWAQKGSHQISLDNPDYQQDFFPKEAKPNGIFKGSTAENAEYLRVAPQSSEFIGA
In short: as §1

EGFR Δ19del/T790M/C797S = EGFR Δ19del/T790M/C797S (Homo sapiens, UniProt P00533, T790M/C797S, form not given); experiment: Kinase inhibition assay (mobility shift); assay type: biochemical
EGFR Δ19del/T790M/C797S, sequence (P00533 with tags, fused parts or gaps DEL746-750/T790M/C797S, form open): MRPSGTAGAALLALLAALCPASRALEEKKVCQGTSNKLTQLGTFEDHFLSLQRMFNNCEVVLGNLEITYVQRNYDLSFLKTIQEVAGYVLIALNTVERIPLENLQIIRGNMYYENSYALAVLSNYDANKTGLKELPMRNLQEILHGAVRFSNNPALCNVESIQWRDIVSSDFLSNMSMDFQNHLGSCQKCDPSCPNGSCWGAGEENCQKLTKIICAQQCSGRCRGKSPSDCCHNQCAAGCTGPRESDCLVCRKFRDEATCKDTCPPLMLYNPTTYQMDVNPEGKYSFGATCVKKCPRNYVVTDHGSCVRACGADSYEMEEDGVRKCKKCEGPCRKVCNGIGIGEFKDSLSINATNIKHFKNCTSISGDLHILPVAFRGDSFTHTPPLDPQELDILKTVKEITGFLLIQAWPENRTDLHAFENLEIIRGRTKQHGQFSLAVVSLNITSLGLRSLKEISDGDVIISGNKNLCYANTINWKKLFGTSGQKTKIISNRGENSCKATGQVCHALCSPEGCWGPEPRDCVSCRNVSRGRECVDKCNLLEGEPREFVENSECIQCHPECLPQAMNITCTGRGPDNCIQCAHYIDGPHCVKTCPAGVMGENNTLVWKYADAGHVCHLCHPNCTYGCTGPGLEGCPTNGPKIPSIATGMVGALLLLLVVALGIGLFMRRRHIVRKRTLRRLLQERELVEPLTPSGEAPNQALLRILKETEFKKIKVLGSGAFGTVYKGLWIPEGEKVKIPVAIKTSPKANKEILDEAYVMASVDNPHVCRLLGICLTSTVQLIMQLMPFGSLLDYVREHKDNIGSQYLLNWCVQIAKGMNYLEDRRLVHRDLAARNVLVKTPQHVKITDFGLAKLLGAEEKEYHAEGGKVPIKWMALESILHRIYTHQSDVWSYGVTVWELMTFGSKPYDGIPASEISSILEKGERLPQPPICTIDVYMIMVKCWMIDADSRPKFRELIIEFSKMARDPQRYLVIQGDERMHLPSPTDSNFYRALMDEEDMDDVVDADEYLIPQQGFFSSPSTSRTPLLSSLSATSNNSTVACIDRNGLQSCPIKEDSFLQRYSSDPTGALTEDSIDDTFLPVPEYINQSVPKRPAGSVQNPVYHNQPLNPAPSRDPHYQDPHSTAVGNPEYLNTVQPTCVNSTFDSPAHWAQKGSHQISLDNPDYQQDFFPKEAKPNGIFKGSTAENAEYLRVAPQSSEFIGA
Description: (§2) Experiment 1 Kinase Inhibition Assay Mobility shift assays were performed to determine inhibitory activity of compounds against EGFR^Δ19del/T790M/C797S, EGFR WT and IGF1R kinases. The enzymatic reaction scheme is as follows:
(§3) 1. Preparing 1*Kinase Buffer as follows:
(§4) 2. Preparing compound concentration gradient: the initial concentration of the compound tested in the assay was 3,000 nM or 100 nM, which is then diluted to be 100-fold final concentration in 100% DMSO in a 384-source plate. Compounds in 10 concentrations were diluted in a 3-fold gradient with Precision. 250 nL of compound in 100-fold final concentration was transferred to OptiPlate-384F plate by using a dispenser named Echo 550.
(§5) 3. Preparing kinase solution at 2.5-fold the final concentration with 1×kinase buffer.
(§6) 4. Adding 10 μL of kinase solution at 2.5-fold the final concentration to compound wells and positive control wells respectively; and adding 10 μL of 1×kinase buffer to negative control wells.
(§7) 5. Centrifuging the wells at 1,000 rpm for 30 seconds, mixing the reaction plate well by shaking and incubating it at room temperature for 10 minutes.
(§8) 6. Preparing a mixed solution of ATP and kinase substrate at 5-fold/3-fold the final concentration with 1×Kinase buffer, respectively.
(§9) 7. Initiating the reaction by adding 15 μL of the mixed solution of ATP and kinase substrate at 5-fold/3-fold the final concentration.
(§10) 8. Centrifuging the 384-well plate at 1,000 rpm for 30 seconds, mixing the reaction plate well by shaking and incubating it at room temperature for a corresponding time.
(§11) 9. Adding 30 μL of assay stop solution to stop the kinase reaction, and centrifuging the plate at 1,000 rpm for 30 seconds and mixing it well by shaking.
(§12) 10. Reading the conversion rate with Caliper EZ Reader.
(§13) [formula] • wherein, “Conversion % sample” is the conversion rate reading of the sample;
(§14) “Conversion %_min” is the mean value of the negative control wells, representing the conversion rate readings of the well without enzymatic activity; “Conversion %_max” is the mean value of the positive control wells, representing the conversion rate readings of the wells without compound inhibition. • Dose-response curve is plotted with the logarithmic concentration on the X-axis and percent inhibition on the Y-axis. The fitting of the dose-response curve is made with the module “log(inhibitor) vs. response—Variable slope” of the analysis software GraphPad Prism 5, so that the IC50 value of each compound on enzymatic activity is obtained. • The calculation formula is: Y=Bottom+(Top−Bottom)/(1+10^((Log IC50−X)*HillSlope)).

EGFR WT = EGFR WT (Homo sapiens, UniProt P00533); experiment: Kinase inhibition assay (mobility shift); assay type: biochemical
EGFR WT, sequence (P00533 25-1210): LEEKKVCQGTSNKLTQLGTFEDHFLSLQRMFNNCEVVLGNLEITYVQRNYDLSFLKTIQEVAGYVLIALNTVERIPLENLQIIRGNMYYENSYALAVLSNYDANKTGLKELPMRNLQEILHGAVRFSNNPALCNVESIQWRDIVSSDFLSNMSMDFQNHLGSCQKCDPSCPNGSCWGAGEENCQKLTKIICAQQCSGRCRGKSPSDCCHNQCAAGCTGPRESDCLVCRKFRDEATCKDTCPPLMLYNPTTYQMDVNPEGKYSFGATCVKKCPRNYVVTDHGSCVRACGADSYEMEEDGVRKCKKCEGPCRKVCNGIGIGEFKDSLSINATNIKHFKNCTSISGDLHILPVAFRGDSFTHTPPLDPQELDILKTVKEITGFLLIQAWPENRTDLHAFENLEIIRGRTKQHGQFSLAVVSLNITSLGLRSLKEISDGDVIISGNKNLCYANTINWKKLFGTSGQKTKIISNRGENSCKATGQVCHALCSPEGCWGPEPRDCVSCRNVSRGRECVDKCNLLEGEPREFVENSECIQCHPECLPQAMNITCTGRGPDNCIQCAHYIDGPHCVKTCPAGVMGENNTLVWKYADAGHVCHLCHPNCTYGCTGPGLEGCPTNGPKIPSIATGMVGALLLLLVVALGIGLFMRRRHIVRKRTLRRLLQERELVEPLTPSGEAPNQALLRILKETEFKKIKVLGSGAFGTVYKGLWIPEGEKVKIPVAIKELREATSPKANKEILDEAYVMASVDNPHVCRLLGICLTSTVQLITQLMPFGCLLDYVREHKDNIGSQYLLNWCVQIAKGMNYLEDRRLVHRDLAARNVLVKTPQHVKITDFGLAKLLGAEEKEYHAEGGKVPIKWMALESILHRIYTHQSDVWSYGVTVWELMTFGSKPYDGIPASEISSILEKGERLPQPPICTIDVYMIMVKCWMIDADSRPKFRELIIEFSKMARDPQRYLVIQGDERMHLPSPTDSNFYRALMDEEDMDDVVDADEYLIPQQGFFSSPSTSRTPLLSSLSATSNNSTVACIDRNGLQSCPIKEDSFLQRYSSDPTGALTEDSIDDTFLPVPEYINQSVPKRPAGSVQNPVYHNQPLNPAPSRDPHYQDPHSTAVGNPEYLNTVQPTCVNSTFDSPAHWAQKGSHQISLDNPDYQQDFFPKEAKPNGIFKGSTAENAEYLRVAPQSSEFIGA
Description: as §2, §3, §4, §5, §6, §7, §8, §9, §10, §11, §12, §13, §14

IGF1R = IGF1R (Homo sapiens, UniProt P08069); experiment: Kinase inhibition assay (mobility shift); assay type: biochemical
Description: as §2, §3, §4, §5, §6, §7, §8, §9, §10, §11, §12, §13, §14

[1] = test system: human epidermal cancer cells A431 carrying EGFR WT; experiment: Cell proliferation experiment (CellTiter Glo, 72 hours); assay type: cell-based; settings: Homo sapiens, A-431
In short: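 Cells seeded at 2000 or 3000/well and exposed 72 h to 9-point 3-fold dilutions, top final 10000 nM or 1111 nM, 0.1% DMSO. Viability by CellTiter-Glo luminescence. Inhibition relative to cell and medium controls; IC50 by four-parameter nonlinear regression.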

Ba/F3-Δ19del/T790M/C797S, sequence (P00533 with tags, fused parts or gaps DEL746-750/T790M/C797S, form open): as the sequence (P00533 with tags, fused parts or gaps DEL746-750/T790M/C797S, form open) above

SMILES | GI50 (Ba/F3-Δ19del/T790M/C797S) [nM] | GI50 (Ba/F3 EGFR WT) [nM] | IC50 (EGFR Δ19del/T790M/C797S) [nM] | IC50 (EGFR WT) [nM] | IC50 (IGF1R) [nM] | IC50 [1] [nM]
COc1cc(N2CCC(N3CCN(C)CC3)CC2)c(C#N)cc1Nc1ncc(Br)c(Nc2ccc3nc(C4CC4)ccc3c2P(C)(C)=O)n1 [Compound J-021, 5-((5-Bromo-4-((2-cyclopropyl-5-(dimethylphosphineoxide)quinolin-6-yl)amino)pyrimidin-2-yl)amino)-4-methoxy-2-(4-(4-methylpiperazin-1-yl)piperidin-1-yl)benzonitrile] | 11.7 | 238 | 0.3 | 19.3 | 293 | 1140
COc1cc(Nc2ncc(Br)c(Nc3ccc4nc(-c5cnn(C)c5)ccc4c3P(C)(C)=O)n2)c(C)cc1N1CCOCC1 [Compound J-007, (6-((5-Bromo-2-((5-methoxy-2-methyl-4-morpholinylphenyl)amino)pyrimidin-4-yl)amino)-2-(1-methyl-1H-pyrazol-4-yl)quinolin-5-yl)dimethylphosphine oxide] | 6 | 147 | 0.2 | 30.3 | 41 | 1030
COc1cc(Nc2ncc(Br)c(Nc3ccc4nc(C5CC5)ccc4c3P(C)(C)=O)n2)c(C)cc1N1CCOCC1 [Compound J-001, (6-((5-Bromo-2-((5-methoxy-2-methyl-4-morpholinylphenyl)amino)pyrimidin-4-yl)amino)-2-cyclopropylquinoline-5-yl)dimethylphosphine oxide] | 26.5 | 396 | 0.5 | 51.7 | 63.6 | 1350
CCc1cc(Nc2ncc(Br)c(Nc3ccc4nc(C5CC5)ccc4c3P(C)(C)=O)n2)c(C)cc1N1CCC(N2CCN(C)CC2)CC1 [Compound J-027, (6-((5-Bromo-2-((5-ethyl-2-methyl-4-(4-(4-methylpiperazin-1-yl)piperidin-1-yl)phenyl)amino)pyrimidin-4-yl)amino)-2-cyclopropylquinolin-5-yl)dimethylphosphine oxide] | 1.4 | 52 | 0.3 | 11.1 | 61.6 | 9010
CCCc1ccc2c(P(C)(C)=O)c(Nc3nc(Nc4cc(C)c(N5CCC(N6CCN(C)CC6)CC5)cc4OC)ncc3Br)ccc2n1 [Compound J-042, (6-((5-Bromo-2-((2-methoxy-5-methyl-4-(4-(4-methylpiperazin-1-yl)piperidin-1-yl)phenyl)amino)pyrimidin-4-yl)amino)-2-propylquinolin-5-yl)dimethylphosphine oxide] | 8.18 | 296 | 0.3 | 21.1 | 107 | 373
COc1cc(N2CCC(N3CCN(C)CC3)CC2)c(C)cc1Nc1ncc(Br)c(Nc2ccc3nc(C(C)C)ccc3c2P(C)(C)=O)n1 [Compound J-034, (6-((5-Bromo-2-((2-methoxy-5-methyl-4-(4-(4-methylpiperazin-1-yl)piperidin-1-yl)phenyl)amino)pyrimidin-4-yl)amino)-2-isopropylquinolin-5-yl)dimethylphosphine oxide] | 5.8 | 189 | 0.12 | 23 | 298 | 440
COc1cc(N2CCC(N3CCN(C)CC3)CC2)c(C)cc1Nc1ncc(Br)c(Nc2ccc3ncccc3c2P(C)(C)=O)n1 [Compound J-041, (6-((5-Bromo-2-((2-methoxy-5-methyl-4-(4-(4-methylpiperazin-1-yl)piperidin-1-yl)phenyl)amino)pyrimidin-4-yl)amino)quinolin-5-yl)dimethylphosphine oxide] | 28.4 | 354 | 0.2 | 11.5 | 25 | 228
CCc1cc(N2CCOCC2)c(OC)cc1Nc1ncc(Br)c(Nc2ccc3nc(C4CC4)ccc3c2P(C)(C)=O)n1 [Compound J-003, (6-((5-Bromo-2-((2-ethyl-5-methoxy-4-morpholinylphenyl)amino)pyrimidin-4-yl)amino)-2-cyclopropylquinoline-5-yl)dimethylphosphine oxide] | 25.7 | 646 | 0.5 | 172 | 189 | 3040
COc1cc(Nc2ncc(Br)c(Nc3ccc4nc(C5CC5)ccc4c3P(C)(C)=O)n2)c(C(C)C)cc1N1CCOCC1 [Compound J-005, (6-((5-Bromo-2-((2-isopropyl-5-methoxy-4-morpholinylphenyl)amino)pyrimidin-4-yl)amino)-2-cyclopropylquinoline-5-yl)dimethylphosphine oxide] | 27 | 698 | 0.5 | 132 | 74.4 | 6140
C#Cc1ccc2c(P(C)(C)=O)c(Nc3nc(Nc4cc(CC)c(N5CCC(N6CCN(C)CC6)CC5)cc4OC)ncc3Br)ccc2n1 [Compound J-014, (6-((5-Bromo-2-((5-ethyl-2-methoxy-4-(4-(4-methylpiperazin-1-yl)piperidin-1-yl)phenyl)amino)pyrimidin-4-yl)amino)-2-ethynylquinolin-5-yl)dimethylphosphine oxide] | 6 | 108 | 0.19 | 4.7 | 58 | 514
COc1cc(Nc2ncc(Br)c(Nc3ccc4nc(C5CC5)ccc4c3P(C)(C)=O)n2)c(C)cc1N1CCN(C2CCCC2)CC1 [Compound J-039, (6-((5-Bromo-2-((4-(4-cyclopentylpiperazin-1-yl)-5-methoxy-2-methylphenyl)amino)pyrimidin-4-yl)amino)-2-cyclopropylquinolin-5-yl)dimethylphosphine oxide] | 12 | 256 | 0.5 | 33.5 | 21.5 | 1110
COc1cc(Nc2ncc(Br)c(Nc3ccc4nc(C5CC5)ccc4c3P(C)(C)=O)n2)c(C2CC2)cc1N1CCC(N2CCN(C)CC2)CC1 [Compound J-024, (6-((5-Bromo-2-((2-cyclopropyl-5-methoxy-4-(4-(4-methylpiperazin-1-yl)piperidin-1-yl)phenyl)amino)pyrimidin-4-yl)amino)-2-cyclopropylquinolin-5-yl)dimethylphosphine oxide] | 26.7 | 373 | 0.5 | 114 | 140 | 1380
COc1cc(Nc2ncc(Br)c(Nc3ccc4nc(C5CC5)ccc4c3P(C)(C)=O)n2)c(C)cc1N1CCC(N(C)C)CC1 [Compound J-009, (6-((5-Bromo-2-((4-(4-(dimethylamino)piperidin-1-yl)-5-methoxy-2-methylphenyl)amino)pyrimidine-4-yl)amino)-2-cyclopropylquinolin-5-yl)dimethylphosphine oxide] | 16.3 | 168 | 0.3 | 14.4 | 14.8 | 384
C#Cc1ccc2c(P(C)(C)=O)c(Nc3nc(Nc4cc(C)c(N5CCC(N6CCN(C)CC6)CC5)cc4OC)ncc3Br)ccc2n1 [Compound J-013, (6-((5-Bromo-2-((2-methoxy-5-methyl-4-(4-(4-methylpiperazin-1 yl)piperidin-1-yl)phenyl)amino)pyrimidin-4-yl)amino)-2-ethynylquinolin-5-yl)dimethylphosphine oxide] | 15.3 | 87 | 0.4 | 11.4 | 28.2 | 308
